Test results reported in PubChem BioAssay AID330 (DTP/NCI, 2004).
Several values for one entry are separate records, joined by “and”; a condition that tells them apart may be missing. Identical values can stand only once. Toxic doses and inconclusive results are not listed.

System: P388 leukemia ip, CD2F1 mice, survival T/C
Test: NCI In Vivo Anticancer Drug Screen. Data for tumor model P388 Leukemia (intraperitoneal) in CD2F1 (CDF1) mice
Details: endpoint: median survival time, higher = longer survival
Procedure, shortened: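 Mice carrying the transplanted tumor received test compound or vehicle. Survival was recorded in each group, and the value is the treated-group measurement divided by that of the vehicle-treated control group.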

[1] = dose: 50.0 mg/kg/injection, schedule: Q01DX005 (ip), vehicle: saline with Tween-80
[2] = dose: 100.0 mg/kg/injection, schedule: Q01DX005 (ip), vehicle: saline with Tween-80
[3] = dose: 200.0 mg/kg/injection, schedule: Q01DX005 (ip), vehicle: saline with Tween-80
[4] = dose: 100.0 mg/kg/injection, schedule: Q01DX009 (ip), vehicle: saline with Tween-80
[5] = dose: 12.5 mg/kg/injection, schedule: Q01DX009 (ip), vehicle: Klucel (hydroxypropylcellulose) (HPC)
[6] = dose: 25.0 mg/kg/injection, schedule: Q01DX009 (ip), vehicle: Klucel (hydroxypropylcellulose) (HPC)
[7] = dose: 50.0 mg/kg/injection, schedule: Q01DX009 (ip), vehicle: Klucel (hydroxypropylcellulose) (HPC)
[8] = dose: 50.0 mg/kg/injection, schedule: Q01DX009 (ip), vehicle: saline with Tween-80
[9] = dose: 100.0 mg/kg/injection, schedule: Q01DX009 (ip), vehicle: Klucel (hydroxypropylcellulose) (HPC)
[10] = dose: 100.0 mg/kg/injection, schedule: Q04DX002 (ip), vehicle: saline with Tween-80
[11] = dose: 200.0 mg/kg/injection, schedule: Q01DX009 (ip), vehicle: saline with Tween-80
[12] = dose: 200.0 mg/kg/injection, schedule: Q04DX002 (ip), vehicle: saline with Tween-80
[13] = dose: 50.0 mg/kg/injection, schedule: Q01DX005 (ip), vehicle: Klucel (hydroxypropylcellulose) (HPC)
[14] = dose: 100.0 mg/kg/injection, schedule: Q01DX005 (ip), vehicle: Klucel (hydroxypropylcellulose) (HPC)
[15] = dose: 200.0 mg/kg/injection, schedule: Q01DX005 (ip), vehicle: Klucel (hydroxypropylcellulose) (HPC)

C#Cc1cccc(N=Cc2cc(Cl)cc(C)c2O)c1
T/C [1]: 88 % of control
T/C [2]: 91 % of control
T/C [3]: 102 % of control

CCCOP(=S)(N1CC1C)N1CC1(C)C (configuration not stated)
T/C (dose: 12.5 mg/kg/injection, schedule: Q04DX003 (ip), vehicle: saline with Tween-80): 122 % of control
T/C (dose: 50.0 mg/kg/injection, schedule: Q04DX003 (ip), vehicle: saline with Tween-80): 154 % of control
T/C (dose: 66.0 mg/kg/injection, schedule: Q04DX003 (ip), vehicle: saline with Tween-80): 186 % of control
T/C [4]: 113 % of control
T/C (dose: 100.0 mg/kg/injection, schedule: Q04DX003 (ip), vehicle: saline with Tween-80): 227 % of control
T/C (dose: 150.0 mg/kg/injection, schedule: Q04DX003 (ip), vehicle: saline with Tween-80): 118 % of control

ClC1C(Cl)C(Cl)C(Cl)C(Cl)C1Cl (configuration not stated)
T/C [5]: 104 % of control and 113 % of control
T/C [6]: 104 % of control and 97 % of control
T/C (dose: 25.0 mg/kg/injection, schedule: Q01DX009 (ip), vehicle: saline with Tween-80): 100 % of control and 104 % of control
T/C [7]: 105 % of control and 98 % of control
T/C [8]: 100 % of control and 108 % of control
T/C (dose: 50.0 mg/kg/injection, schedule: Q04DX002 (ip), vehicle: saline with Tween-80): 100 % of control
T/C [9]: 89 % of control and 95 % of control
T/C [4]: 100 % of control and 108 % of control
T/C [10]: 100 % of control
T/C (dose: 150.0 mg/kg/injection, schedule: Q01DX009 (ip), vehicle: Klucel (hydroxypropylcellulose) (HPC)): 99 % of control and 87 % of control
T/C [11]: 100 % of control and 110 % of control
T/C [12]: 90 % of control
T/C (dose: 400.0 mg/kg/injection, schedule: Q01DX009 (ip), vehicle: saline with Tween-80): 101 % of control and 114 % of control

Nc1nc(N)c2nc3c(ccc4ccccc43)nc2n1
T/C (dose: 60.0 mg/kg/injection, schedule: Q01DX005 (ip), vehicle: saline with Tween-80): 94 % of control
T/C (dose: 120.0 mg/kg/injection, schedule: Q01DX005 (ip), vehicle: saline with Tween-80): 96 % of control
T/C (dose: 240.0 mg/kg/injection, schedule: Q01DX005 (ip), vehicle: saline with Tween-80): 104 % of control

O=[C-]c1ccccc1[C-]=O.[I][Ni+2][I]
T/C (dose: 6.25 mg/kg/injection, schedule: Q01DX005 (ip), vehicle: saline): 94 % of control
T/C (dose: 12.5 mg/kg/injection, schedule: Q01DX005 (ip), vehicle: saline): 94 % of control
T/C (dose: 25.0 mg/kg/injection, schedule: Q01DX005 (ip), vehicle: saline): 110 % of control

CCC1=C[C@H]2CN(CCc3c([nH]c4ccccc34)[C@@](C(=O)OC)(c3cc4c(cc3OC)N(C)[C@H]3[C@@](O)(C(=O)OC)[C@H](OC(C)=O)[C@]5(CC)C=CCN6CC[C@]43[C@@H]65)C2)C1
T/C (dose: 0.06 mg/kg/injection, schedule: Q01DX009 (ip), vehicle: water): 109 % of control
T/C (dose: 0.13 mg/kg/injection, schedule: Q01DX009 (ip), vehicle: water): 162 % of control
T/C (dose: 0.2 mg/kg/injection, schedule: Q01DX009 (ip), vehicle: saline): 151 % of control
T/C (dose: 0.25 mg/kg/injection, schedule: Q01DX009 (ip), vehicle: water): 106 % of control
T/C (dose: 0.4 mg/kg/injection, schedule: Q01DX009 (ip), vehicle: saline): 163 % of control
T/C (dose: 0.5 mg/kg/injection, schedule: Q04DX003 (ip), vehicle: water): 151 % of control
T/C (dose: 0.8 mg/kg/injection, schedule: Q01DX009 (ip), vehicle: saline): 178 % of control
T/C (dose: 1.0 mg/kg/injection, schedule: Q04DX003 (ip), vehicle: water): 169 % of control
T/C (dose: 2.0 mg/kg/injection, schedule: Q04DX003 (ip), vehicle: water): 205 % of control
T/C (dose: 4.0 mg/kg/injection, schedule: Q04DX003 (ip), vehicle: water): 241 % of control
T/C (dose: 8.0 mg/kg/injection, schedule: Q04DX003 (ip), vehicle: water): 87 % of control

CC[C@H]1CN2CCc3c([nH]c4ccccc34)[C@@H]2C[C@@H]1/C(=C\OC)C(=O)OC
T/C [1]: 108 % of control
T/C [2]: 108 % of control
T/C [3]: 108 % of control

COCC1(C)CCCC2(C)C1CCC13CCC(O)CC12O3 (configuration not stated)
T/C (dose: 100.0 mg/kg/injection, schedule: Q01DX001 (ip), vehicle: saline): 105 % of control
T/C (dose: 200.0 mg/kg/injection, schedule: Q01DX001 (ip), vehicle: saline): 105 % of control
T/C (dose: 400.0 mg/kg/injection, schedule: Q01DX001 (ip), vehicle: saline): 103 % of control

CC(=O)Nc1ccccc1NOC(=O)c1ccccc1NC(C)=O
T/C [13]: 91 % of control
T/C [14]: 87 % of control
T/C [15]: 91 % of control

CC1=C(N2CC2)C(=O)c2ccccc2C1=O
T/C [7]: 93 % of control
T/C [9]: 90 % of control

CCC12C=CCN3CC[C@@]4(c5cc([C@@]6(C(=O)OC)C[C@@H]7CN(CCc8c6[nH]c6ccccc86)C[C@](O)(CC)C7)c(OC)cc5N(C)[C@H]4[C@@](O)(C(=O)OC)[C@@H]1OC(=O)CCCCCCCCCCCN1C(=O)C=CC1=O)[C@H]32 (some centres not stated)
T/C (dose: 6.25 mg/kg/injection, schedule: Q01DX001 (ip), vehicle: other): 124 % of control
T/C (dose: 12.5 mg/kg/injection, schedule: Q01DX001 (ip), vehicle: saline with Tween-80): 161 % of control
T/C (dose: 25.0 mg/kg/injection, schedule: Q01DX001 (ip), vehicle: other): 200 % of control
T/C (dose: 25.0 mg/kg/injection, schedule: Q01DX001 (ip), vehicle: saline with Tween-80): 238 % of control
T/C (dose: 25.0 mg/kg/injection, schedule: Q01DX001 (ip), vehicle: saline): 202 % of control
T/C (dose: 50.0 mg/kg/injection, schedule: Q01DX001 (ip), vehicle: saline): 215 % of control

Nc1nc(Cl)nc(Nc2ccc(-c3cc4ccc(-c5ncc[nH]5)cc4[nH]3)cc2)n1
T/C (dose: 60.0 mg/kg/injection, schedule: Q01DX005 (ip), vehicle: Klucel (hydroxypropylcellulose) (HPC)): 88 % of control
T/C (dose: 120.0 mg/kg/injection, schedule: Q01DX005 (ip), vehicle: Klucel (hydroxypropylcellulose) (HPC)): 88 % of control
T/C (dose: 240.0 mg/kg/injection, schedule: Q01DX005 (ip), vehicle: Klucel (hydroxypropylcellulose) (HPC)): 87 % of control

O=C(NC(c1ccccc1)c1cccs1)c1cccs1 (configuration not stated)
T/C [13]: 99 % of control
T/C [14]: 99 % of control
T/C [15]: 103 % of control

CCN(CC)Cc1c2c(O)c3c(O)c(C)c4c(c3c1O)C(=O)C(C)(O/C=C/C(OC)C(C)C(OC(C)=O)C(C)C(O)C(C)C(O)C(C)/C=C/C=C(\C)C(=O)N2)O4 (configuration not stated)
T/C [5]: 115 % of control
T/C [6]: 93 % of control
T/C [13]: 103 % of control
T/C [7]: 91 % of control
T/C [8]: 110 % of control
T/C [14]: 106 % of control
T/C [9]: 86 % of control
T/C [4]: 90 % of control
T/C [15]: 94 % of control
T/C [11]: 97 % of control
T/C (dose: 400.0 mg/kg/injection, schedule: Q01DX009 (ip), vehicle: Klucel (hydroxypropylcellulose) (HPC)): 111 % of control

Cc1ccc(S(=O)(=O)Cc2ccccc2)cc1
T/C (dose: 50.0 mg/kg/injection, schedule: Q04DX003 (ip), vehicle: other): 90 % of control
T/C (dose: 100.0 mg/kg/injection, schedule: Q04DX003 (ip), vehicle: other): 95 % of control
T/C (dose: 200.0 mg/kg/injection, schedule: Q04DX003 (ip), vehicle: other): 90 % of control

CC[N+]1(CC)CCCCC1
T/C (dose: 3.12 mg/kg/injection, schedule: Q01DX009 (ip), vehicle: saline): 109 % of control
T/C (dose: 6.25 mg/kg/injection, schedule: Q01DX009 (ip), vehicle: saline): 109 % of control
T/C (dose: 12.5 mg/kg/injection, schedule: Q01DX009 (ip), vehicle: saline): 105 % of control

COP(=S)(OC)Oc1ccc(S(N)(=O)=O)cc1
T/C [10]: 102 % of control
T/C [12]: 98 % of control
T/C (dose: 400.0 mg/kg/injection, schedule: Q04DX002 (ip), vehicle: saline with Tween-80): 98 % of control
